{
  "source": "patent US12576070B2",
  "about": "“Medicine for improving state of pregnancy, and use thereof” (priority 2014, dated 2026)",
  "system": "patient with a past history of both eclampsia and HELLP syndrome",
  "test": "Tacrolimus monotherapy in a patient with past history of eclampsia and HELLP syndrome (Example 4)",
  "format": "in vivo, human",
  "conditions": "for ALT (U/L) / AST (U/L) / Cr / Hb / LDH (U/L) / Plt (10^4/uL) / WBC: blood examination, with tacrolimus treatment",
  "from_the_text": "The patient was a person (y.o.) […] with a past history of both eclampsia and HELLP syndrome. During the first pregnancy when the patient was […], they complained of physical deconditioning from early in their pregnancy. […] Sudden aggravation of the edema, proteinuria and hypertension appeared at 18 weeks gestation, at which time they were diagnosed with preeclampsia. HELLP syndrome and eclampsia occurred at 20 weeks gestation and a stillbirth required an emergency cesarean section. After delivery of the baby, they had severe complications such as pulmonary edema, disseminated intravascular coagulation, and intraperitoneal bleeding. They were medicated via an artificial respirator, and received albumin and a blood transfusion (Table 6). […] Laboratory findings related to infertility such as antiphospholipid syndrome (anti-CL IgG Ab, anti-CL IgM Ab, anti-β2GP-1 Ab, anti-PS/PT Ab, anti-PE IgG Ab, anti-PE IgM Ab), autoimmune disease (ANA and anti-DNA Ab), and disorders of blood coagulation (protein S activity, protein C activity, factor XII activity) were all negative. Although no obvious immunological abnormalities of the Th1(CD4^+IFN-γ+)/Th2 (CD4+IL-4^+) cell ratio (15.2/2.1) in CD4 positive cells (normal range, <10.3) were observed before pregnancy^46, it was assumed that maternal immunity would be activated by the embedding of a fertilized ovum (recognition of fetal antigens) and the abnormalities of maternal-fetal immunity may have inhibited placenta construction and caused fetal growth retardation and hypertension. The patient was treated with 1 mg/day of tacrolimus to control the maternal-fetal immunity. This patient received a monotherapy of tacrolimus without a concomitant treatment of a low dose of aspirin, which is often used as an anti-platelet agent for HDP^47. The course of the pregnancy was stable until the 3rd trimester, and no significant symptoms were observed during the 2nd trimester, at which point HELLP syndrome occurred in their previous pregnancy. Clinical signs of HELLP syndrome rapidly appeared, however, at 33 weeks gestation. A decrease in the Th1 and Th2 cell populations in CD4 positive cells and a reduction in the activity of NK cells over time post-partum were observed, which confirms that the tacrolimus regimen exerted sufficient suppressive effect on those cells, whereas the activity of NK cells was elevated at 32 weeks gestation. A possibility was speculated that NK cell activity was stimulated when a large number of fetal antigens were transferred to the maternal blood circulation after the suppression of the NK cells by the 1 mg/day dose of tacrolimus became insufficient in the 3rd trimester. […] Th1 and Th2 cell populations in CD4 positive cells and the NK cell activity were measured to evaluate the patient's pathological condition. One of the parameters, NK cell activity, indicated an appearance of abnormal maternal-fetal immunity. Other parameters that can be used to evaluate the failure of maternal tolerance for a fetus and activation of maternal immune rejection against a fetus with inflammation include Treg cells, Th17 cells, cytokines, and chemokines^37-44.",
  "key": {"[1]": {"conditions": "Current pregnancy with tacrolimus treatment 1 mg/day"}, "[2]": {"conditions": "Current pregnancy with tacrolimus treatment 1 mg/day, after delivery"}, "[3]": {"conditions": "Current pregnancy with tacrolimus treatment 1 mg/day, before delivery"}},
  "data": [
    {"smiles": "C=CCC1/C=C(\\C)CC(C)CC(OC)C2OC(O)(C(=O)C(=O)N3CCCCC3C(=O)OC(/C(C)=C/C3CCC(O)C(OC)C3)C(C)C(O)CC1=O)C(C)CC2OC", "note": "(centres unmarked) [tacrolimus, 17-Allyl-1,14-dihydroxy-12-[2-(4-hydroxy-3-methoxycyclohexyl)-1-methylvinyl]-23,2 5-dimethoxy-13,19,21,27-tetramethyl-11,28-dioxa-4-azatricyclo[22.3.1.04,9]octacos-18-ene-2,3,10,16-tetraone]", "values": [
      {"measurement": "Fetal information: fetal growth", "setting": "[1]", "result": "−1.9", "unit": "SD"},
      {"measurement": "start of proteinuria (weeks gstation)", "setting": "[1]", "result": 33, "unit": "weeks gstation"},
      {"measurement": "Symptoms: edema", "setting": "[2]", "result": "slight"},
      {"measurement": "Symptoms: hypertension", "setting": "[2]", "result": "transient"},
      {"measurement": "complications after deliverly", "setting": "[2]", "result": "none"},
      {"measurement": "Symptoms: edema", "setting": "[3]", "result": "slight"},
      {"measurement": "Symptoms: hypertension", "setting": "[3]", "result": "not observed"},
      {"measurement": "ALT (U/L)", "setting": "after delivery", "result": 833, "unit": "U/L"},
      {"measurement": "AST (U/L)", "setting": "after delivery", "result": 898, "unit": "U/L"},
      {"measurement": "Cr", "setting": "after delivery", "result": 0.59, "unit": "mg/dL"},
      {"measurement": "Hb", "setting": "after delivery", "result": 10.5, "unit": "g/dL"},
      {"measurement": "LDH (U/L)", "setting": "after delivery", "result": 1995, "unit": "U/L"},
      {"measurement": "Plt (10^4/uL)", "setting": "after delivery", "result": "2.2 10^4/uL"},
      {"measurement": "WBC", "setting": "after delivery", "result": 8220, "unit": "cells/µL"},
      {"measurement": "ALT (U/L)", "setting": "before delivery", "result": 71, "unit": "U/L"},
      {"measurement": "AST (U/L)", "setting": "before delivery", "result": 65, "unit": "U/L"},
      {"measurement": "Cr", "setting": "before delivery", "result": 1, "unit": "mg/dL"},
      {"measurement": "Hb", "setting": "before delivery", "result": 11, "unit": "g/dL"},
      {"measurement": "LDH (U/L)", "setting": "before delivery", "result": 316, "unit": "U/L"},
      {"measurement": "Plt (10^4/uL)", "setting": "before delivery", "result": "10 10^4/uL"},
      {"measurement": "WBC", "setting": "before delivery", "result": 8280, "unit": "cells/µL"},
      {"measurement": "Th1 and Th2 cell populations in CD4 positive cells", "setting": "during pregnancy, with time, tacrolimus 1 mg/day (FIG. 1)", "result": "decrease"},
      {"measurement": "NK cell activity", "setting": "during pregnancy, normal range 18-40%, tacrolimus 1 mg/day (FIG. 1)", "result": "decreased in the 2nd trimester and then obviously increased at 32 weeks gestation"},
      {"measurement": "course of the pregnancy stable with no emergence of proteinuria, edema or hypertension until", "setting": "tacrolimus 1 mg/day monotherapy", "result": 32, "unit": "weeks gestation"},
      {"measurement": "Clinical signs of HELLP syndrome appeared at", "setting": "tacrolimus 1 mg/day monotherapy, previous pregnancy: 20 weeks gestation", "result": 33, "unit": "weeks gestation"},
      {"measurement": "prolonged the timing of onset of HELLP syndrome", "setting": "tacrolimus 1 mg/day versus previous pregnancy without treatment", "result": "about 13 weeks gestation"}
    ]}
  ]
}
